According to US20250223366A1, “MONOCLONAL ANTIBODIES AND BISPECIFIC ANTIBODY AGAINST C-MET” (BIOTHEUS INC., priority 2022, published 2025):
One block for each molecule: values may come before it.

Assays:
[1] = molecular target: T1, EGFR which expressed on H292 cells (Homo sapiens, UniProt P00533); assay: Blocking EGF-EGFR interaction on H292 cells (flow cytometry, Biotin-h.EGF); assay type: cell-based; settings: negative controls, FIG. 3
T1 construct: H292 cells, which were human non-small cell lung cancer cells purchased from Procell, were capable of expressing EGFR and c-Met receptors; host or cells: H292 cells
Description: H292 cells, which were human non-small cell lung cancer cells purchased from Procell, were capable of expressing EGFR and c-Met receptors. H292 cells were expanded to a suitable density, digested and detached from the cell culture flask, resuspended to 1×10^6 cells/ml, added to a 96-well flow plate, 100 μL per well, and centrifuged for later use. The antibody to be tested was subjected to 3-fold dilution with PBS, starting from 200 nM, and the diluted sample was added to the 96-well flow plate with cells, 100 μL/well, and incubated at 25° C. for 60 min. Biotin-h.EGF was diluted to 100 nM with PBS, added to the 96-well flow plate with cells, 100 μL/well, and incubated at 25° C. for 60 min. then washed twice with PBS. Streptavidin-FITC (purchased from Jackson) was diluted 100 times with PBS and added to the plate, 100 µL/well, incubated at 4° C. for 30 min, and washed twice with PBS. 100 μL/well of PBS was added to resuspend the cells, then the cells were detected on a CytoFlex (Beckman) flow cytometer, and the corresponding MFI was calculated.

[2] = tested on: H1975-HGF human lung cancer cells; assay: Experimental Model 5: H1975-HGF tumor-bearing model, combination with Osimertinib; assay type: in vivo, CB-17 SCID mice; settings: antibody Day 16 and Day 18: 3 mg/kg, Osimertinib Days 16 to 22: 3 mg/kg/day, last measured 28 days after inoculation
From the text: In this experiment, the in vivo efficacy of the bispecific antibody of the present application in combination with an small molecule EGFR inhibitor (e.g., Osimertinib) was detected. Using the lentiviral transfection method, the cDNA encoding human HGF (hepatocyte growth factor) (the sequence was from UniProtKB P14210) was constructed on the pLVX-neu vector by General Biol, and the plasmid was transfected into H1975 cells to construct a cell line ([…]) with stable expression of HGF. In this experiment, CB-17 SCID mice were subcutaneously inoculated with H1975-HGF human lung cancer cells to establish a tumor-bearing model and determine the anti-tumor effect of the anti-EGFRxc-Met bispecific antibody. The model construction process was the same as that of Experimental Model 2. The mice were divided into groups according to the grouping and dosing scheme in Table 10 and the corresponding doses of antibodies were injected.
The tumor volume and body weight of mice were measured 2 to 3 times a week. The body weight and tumor volume of mice were measured for the last time 28 days after the tumor cell inoculation, and then the mice were euthanized.

A375/H1975/HCC827 cells = assay: ADCC induction, CD16a-NFAT-Luc Jurkat reporter gene cells; assay type: cell-based, human; settings: A375, H1975, HCC827 target cells, CD16a-NFAT-Luc Jurkat effector cells, 6 h, FIG. 9
From the text: A375 cells were human malignant melanoma cells and purchased from Addexbio, which were capable of expressing EGFR and c-Met receptors. H1975 cells were human lung adenocarcinoma cells and purchased from Addexbio, which were capable of highly expressing EGFR and c-Met receptors. HCC827 cells were human non-small cell lung cancer cells and purchased from the Cell Bank of the Chinese Academy of Sciences, which were capable of highly expressing EGFR and c-Met receptors. […]

HepG2 cells = assay: Blocking HGF-induced migration of HepG2 cells; assay type: cell-based, human; settings: HGF in lower chamber, 3 days, FIG. 6
From the text: HepG2 cells were human liver cancer cells and purchased from ATCC, which were capable of expressing EGFR and c-Met receptors. When HGF was placed in the lower chamber culture medium, it would induce HepG2 cells in the upper chamber to migrate to the lower chamber through the filter membrane. The specific experimental method was as follows: HepG2 cells were expanded to an appropriate density, the cells were digested and detached from the cell culture flask, resuspended to 1×10^6 cells/ml, and added to the upper chamber of the 24-well cell migration plate (purchased from Corning) at 100 μL per well for later use. The bispecific antibody was diluted to 200 nM with MEM, added to the upper chamber of the 24-well cell migration plate at 100 μL per well, and incubated at 25° C. for 60 min. h.HGF (purchased from R&D) was diluted to 50 ng/mL with MEM, added to the lower chamber of the cell migration plate at 500 μL/well, and cultured for 3 days at 37° C. and 5% carbon dioxide. The non-migrated cells on the upper chamber membrane were gently wiped with cotton swabs, the cells that migrated to the lower chamber membrane were lysed with Cell titer glo (purchased from Promega), and the chemiluminescent signal was collected with an microplate plate reader.

[3] = tested on: H292 human lung cancer tumor cells; assay: Experimental Model 4: H292 tumor-bearing model, comparison with Rybrevant; assay type: in vivo, CB-17 SCID mice; settings: H292, single dose Day 14: 10 mg/kg; last measured 27 days after inoculation
From the text: In this experiment, CB-17 SCID mice were subcutaneously inoculated with H292 human lung cancer tumor cells to establish a tumor-bearing model, and the anti-EGFRxc-Met bispecific antibody was compared with the commercially available EGFRxc-Met bispecific antibody Rybrevant (purchased from Johnson & Johnson, batch number: LHS3G02) (this antibody had been published at various oncology conferences and was also known as JNJ-6372) in terms of anti-tumor effect. The mouse model establishment process was the same as that of Experimental Model 1. The groups were divided according to the grouping and dosing scheme in Table 9 and the corresponding doses of antibodies were injected.
The tumor volume and body weight of the mice were measured 2 to 3 times a week. The weight and tumor volume of the mice were measured for the last time 27 days after the inoculation of tumor cells, and the mice were euthanized.

blocking interaction between EGF and EGFR [1]: could not block
Molecule: anti-MET single-arm antibody: anti-c-Met single-arm molecule constructed based on the control molecule Amivantamab; heavy chain SEQ ID NO: 43, light chain SEQ ID NO: 8 [reference compound]

Molecule: C=CC(=O)Nc1cc(Nc2nccc(-c3cn(C)c4ccccc34)n2)c(OC)cc1N(C)CCN(C)C [Osimertinib]
TGI [2]: 38.9%

Molecule: Amivantamab analog: control anti-EGFRxcMet bispecific antibody with anti-cMet arm of WO2011/110642A2, obtained in normal host cells [reference compound]
ADCC effect (A375/H1975/HCC827 cells): induced ADCC effects

Molecule: anti-EGFR single-arm antibody: anti-EGFR single-arm antibody prepared based on the control antibody Amivantamab; heavy chain SEQ ID NO: 42, light chain SEQ ID NO: 4 [reference compound]
blocking of HGF-induced migration of HepG2 cells (HepG2 cells): could not block

Molecule: Rybrevant: commercially available EGFRxc-Met bispecific antibody, purchased from Johnson & Johnson, batch number LHS3G02 [reference compound]
TGI [3]: 67.9%
TGI [2]: 44.1%
